Inhibition and IC50 data for 13 compounds are collected here from ChEMBL document CHEMBL4622846, “Synthesis and cytotoxic effects of 2-thio-3,4-dihydroquinazoline derivatives as novel T-type calcium channel blockers” (Bioorg Med Chem, 2020).

SMILES strings stand for the structures. Activity calls are given as the source filed them. The rule behind the calls is not given here.

Assay [1] has as its target T1, Voltage-dependent T-type calcium channel subunit alpha-1H (Homo sapiens, UniProt O95180). The assay is described as follows: Inhibition of human Cav3.2 expressed in tsA-201 cells at 10uM by patch clamp electrophysiology. It counts as cell-based. Background: Patch clamp records ionic current or voltage across a cell membrane.
Another assay concerns HCT-116. The assay is described as follows: Cytotoxicity against human HCT116 cells assessed as reduction in cell viability after 48 hrs by MTT assay. As to conditions: HCT-116, 48 h. It counts as functional, cell-based. For orientation: Formazan colour is commonly taken as a measure of viable cells.
Assay [2] addresses T1, Voltage-dependent T-type calcium channel subunit alpha-1H. The assay is described as follows: Inhibition of human Cav3.2 expressed in tsA-201 cells by patch clamp electrophysiology. The format is cell-based.
Assay [3] addresses T2, Voltage-dependent T-type calcium channel subunit alpha-1G (Homo sapiens, UniProt O43497). As to the kind of experiment: Inhibition of human Cav3.1 expressed in tsA-201 cells at 10uM by patch clamp electrophysiology. The format is cell-based.
The target of assay [4] is T3, Voltage-dependent T-type calcium channel subunit alpha-1I (Homo sapiens, UniProt Q9P0X4). As to the kind of experiment: Inhibition of human Cav3.3 expressed in tsA-201 cells at 10uM by patch clamp electrophysiology. The format is cell-based.
The test system of the next assay is A549. The assay is described as follows: Cytotoxicity against human A549 cells assessed as reduction in cell viability after 48 hrs by MTT assay. The following applies: A549, 48 h. The format is functional, cell-based.
The target of assay [5] is T3, Voltage-dependent T-type calcium channel subunit alpha-1I. As to the kind of experiment: Inhibition of human Cav3.3 expressed in tsA-201 cells by patch clamp electrophysiology. It counts as cell-based.
Assay [6] deals with T2, Voltage-dependent T-type calcium channel subunit alpha-1G. The assay is described as follows: Inhibition of human Cav3.1 expressed in tsA-201 cells by patch clamp electrophysiology. The format is cell-based.

T2 sequence (O43497 whole entry): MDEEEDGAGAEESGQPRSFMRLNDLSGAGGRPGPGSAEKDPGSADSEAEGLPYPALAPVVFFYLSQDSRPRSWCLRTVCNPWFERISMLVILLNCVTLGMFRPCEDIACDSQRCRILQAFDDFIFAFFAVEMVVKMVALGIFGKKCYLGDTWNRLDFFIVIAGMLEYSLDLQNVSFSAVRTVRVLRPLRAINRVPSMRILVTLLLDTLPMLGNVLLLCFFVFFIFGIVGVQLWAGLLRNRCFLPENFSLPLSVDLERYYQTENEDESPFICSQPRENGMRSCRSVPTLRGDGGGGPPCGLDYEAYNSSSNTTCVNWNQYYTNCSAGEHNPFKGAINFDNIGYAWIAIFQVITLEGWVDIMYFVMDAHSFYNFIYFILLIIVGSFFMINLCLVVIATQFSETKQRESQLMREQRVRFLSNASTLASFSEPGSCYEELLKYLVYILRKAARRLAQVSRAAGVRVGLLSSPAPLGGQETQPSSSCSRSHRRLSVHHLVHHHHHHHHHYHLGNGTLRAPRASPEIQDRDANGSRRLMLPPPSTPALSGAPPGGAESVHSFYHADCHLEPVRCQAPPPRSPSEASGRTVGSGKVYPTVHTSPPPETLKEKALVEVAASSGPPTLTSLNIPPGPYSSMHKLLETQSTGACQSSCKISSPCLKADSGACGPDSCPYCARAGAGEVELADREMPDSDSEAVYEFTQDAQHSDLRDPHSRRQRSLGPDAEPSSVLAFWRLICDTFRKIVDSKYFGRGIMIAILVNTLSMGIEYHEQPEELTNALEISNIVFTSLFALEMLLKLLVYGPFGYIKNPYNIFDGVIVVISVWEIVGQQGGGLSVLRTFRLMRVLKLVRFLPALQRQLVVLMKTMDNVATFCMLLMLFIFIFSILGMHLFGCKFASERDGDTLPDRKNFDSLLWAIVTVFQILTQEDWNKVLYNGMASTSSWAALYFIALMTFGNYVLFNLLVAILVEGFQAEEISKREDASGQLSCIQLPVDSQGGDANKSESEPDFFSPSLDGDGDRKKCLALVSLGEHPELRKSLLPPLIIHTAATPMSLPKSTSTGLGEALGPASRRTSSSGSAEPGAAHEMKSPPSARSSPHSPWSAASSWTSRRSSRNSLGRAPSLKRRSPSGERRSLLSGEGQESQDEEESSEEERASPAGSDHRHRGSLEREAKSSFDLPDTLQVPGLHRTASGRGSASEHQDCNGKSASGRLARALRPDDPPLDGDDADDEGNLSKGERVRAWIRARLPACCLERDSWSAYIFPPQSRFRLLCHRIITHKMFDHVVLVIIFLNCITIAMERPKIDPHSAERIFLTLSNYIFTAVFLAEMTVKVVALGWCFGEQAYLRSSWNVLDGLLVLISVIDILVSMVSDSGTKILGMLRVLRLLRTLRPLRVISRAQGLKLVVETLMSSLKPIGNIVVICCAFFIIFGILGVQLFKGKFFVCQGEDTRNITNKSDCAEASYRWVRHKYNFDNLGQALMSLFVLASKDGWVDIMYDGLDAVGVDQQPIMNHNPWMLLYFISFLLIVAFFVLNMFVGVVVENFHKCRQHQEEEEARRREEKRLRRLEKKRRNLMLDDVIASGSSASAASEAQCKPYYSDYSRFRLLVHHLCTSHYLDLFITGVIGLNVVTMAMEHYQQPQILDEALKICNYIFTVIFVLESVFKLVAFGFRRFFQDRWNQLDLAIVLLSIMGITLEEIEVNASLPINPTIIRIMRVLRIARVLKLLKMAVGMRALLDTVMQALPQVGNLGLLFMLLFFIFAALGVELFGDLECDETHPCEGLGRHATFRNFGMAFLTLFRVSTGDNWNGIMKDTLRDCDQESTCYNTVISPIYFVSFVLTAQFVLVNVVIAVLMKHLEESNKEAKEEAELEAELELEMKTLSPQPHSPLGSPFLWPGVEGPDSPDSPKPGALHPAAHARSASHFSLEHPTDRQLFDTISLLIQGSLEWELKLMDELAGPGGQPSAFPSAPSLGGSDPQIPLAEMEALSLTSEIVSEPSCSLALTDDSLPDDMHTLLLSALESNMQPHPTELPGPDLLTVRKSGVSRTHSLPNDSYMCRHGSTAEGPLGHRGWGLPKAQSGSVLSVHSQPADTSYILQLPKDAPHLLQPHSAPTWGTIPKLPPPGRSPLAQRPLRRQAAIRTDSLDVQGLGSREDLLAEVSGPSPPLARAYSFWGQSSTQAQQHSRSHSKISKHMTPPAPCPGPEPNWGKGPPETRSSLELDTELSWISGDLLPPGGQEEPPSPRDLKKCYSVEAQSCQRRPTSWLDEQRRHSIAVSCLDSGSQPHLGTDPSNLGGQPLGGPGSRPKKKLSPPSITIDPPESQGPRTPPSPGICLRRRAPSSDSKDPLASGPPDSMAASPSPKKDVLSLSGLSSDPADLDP
T1 sequence (O95180 whole entry): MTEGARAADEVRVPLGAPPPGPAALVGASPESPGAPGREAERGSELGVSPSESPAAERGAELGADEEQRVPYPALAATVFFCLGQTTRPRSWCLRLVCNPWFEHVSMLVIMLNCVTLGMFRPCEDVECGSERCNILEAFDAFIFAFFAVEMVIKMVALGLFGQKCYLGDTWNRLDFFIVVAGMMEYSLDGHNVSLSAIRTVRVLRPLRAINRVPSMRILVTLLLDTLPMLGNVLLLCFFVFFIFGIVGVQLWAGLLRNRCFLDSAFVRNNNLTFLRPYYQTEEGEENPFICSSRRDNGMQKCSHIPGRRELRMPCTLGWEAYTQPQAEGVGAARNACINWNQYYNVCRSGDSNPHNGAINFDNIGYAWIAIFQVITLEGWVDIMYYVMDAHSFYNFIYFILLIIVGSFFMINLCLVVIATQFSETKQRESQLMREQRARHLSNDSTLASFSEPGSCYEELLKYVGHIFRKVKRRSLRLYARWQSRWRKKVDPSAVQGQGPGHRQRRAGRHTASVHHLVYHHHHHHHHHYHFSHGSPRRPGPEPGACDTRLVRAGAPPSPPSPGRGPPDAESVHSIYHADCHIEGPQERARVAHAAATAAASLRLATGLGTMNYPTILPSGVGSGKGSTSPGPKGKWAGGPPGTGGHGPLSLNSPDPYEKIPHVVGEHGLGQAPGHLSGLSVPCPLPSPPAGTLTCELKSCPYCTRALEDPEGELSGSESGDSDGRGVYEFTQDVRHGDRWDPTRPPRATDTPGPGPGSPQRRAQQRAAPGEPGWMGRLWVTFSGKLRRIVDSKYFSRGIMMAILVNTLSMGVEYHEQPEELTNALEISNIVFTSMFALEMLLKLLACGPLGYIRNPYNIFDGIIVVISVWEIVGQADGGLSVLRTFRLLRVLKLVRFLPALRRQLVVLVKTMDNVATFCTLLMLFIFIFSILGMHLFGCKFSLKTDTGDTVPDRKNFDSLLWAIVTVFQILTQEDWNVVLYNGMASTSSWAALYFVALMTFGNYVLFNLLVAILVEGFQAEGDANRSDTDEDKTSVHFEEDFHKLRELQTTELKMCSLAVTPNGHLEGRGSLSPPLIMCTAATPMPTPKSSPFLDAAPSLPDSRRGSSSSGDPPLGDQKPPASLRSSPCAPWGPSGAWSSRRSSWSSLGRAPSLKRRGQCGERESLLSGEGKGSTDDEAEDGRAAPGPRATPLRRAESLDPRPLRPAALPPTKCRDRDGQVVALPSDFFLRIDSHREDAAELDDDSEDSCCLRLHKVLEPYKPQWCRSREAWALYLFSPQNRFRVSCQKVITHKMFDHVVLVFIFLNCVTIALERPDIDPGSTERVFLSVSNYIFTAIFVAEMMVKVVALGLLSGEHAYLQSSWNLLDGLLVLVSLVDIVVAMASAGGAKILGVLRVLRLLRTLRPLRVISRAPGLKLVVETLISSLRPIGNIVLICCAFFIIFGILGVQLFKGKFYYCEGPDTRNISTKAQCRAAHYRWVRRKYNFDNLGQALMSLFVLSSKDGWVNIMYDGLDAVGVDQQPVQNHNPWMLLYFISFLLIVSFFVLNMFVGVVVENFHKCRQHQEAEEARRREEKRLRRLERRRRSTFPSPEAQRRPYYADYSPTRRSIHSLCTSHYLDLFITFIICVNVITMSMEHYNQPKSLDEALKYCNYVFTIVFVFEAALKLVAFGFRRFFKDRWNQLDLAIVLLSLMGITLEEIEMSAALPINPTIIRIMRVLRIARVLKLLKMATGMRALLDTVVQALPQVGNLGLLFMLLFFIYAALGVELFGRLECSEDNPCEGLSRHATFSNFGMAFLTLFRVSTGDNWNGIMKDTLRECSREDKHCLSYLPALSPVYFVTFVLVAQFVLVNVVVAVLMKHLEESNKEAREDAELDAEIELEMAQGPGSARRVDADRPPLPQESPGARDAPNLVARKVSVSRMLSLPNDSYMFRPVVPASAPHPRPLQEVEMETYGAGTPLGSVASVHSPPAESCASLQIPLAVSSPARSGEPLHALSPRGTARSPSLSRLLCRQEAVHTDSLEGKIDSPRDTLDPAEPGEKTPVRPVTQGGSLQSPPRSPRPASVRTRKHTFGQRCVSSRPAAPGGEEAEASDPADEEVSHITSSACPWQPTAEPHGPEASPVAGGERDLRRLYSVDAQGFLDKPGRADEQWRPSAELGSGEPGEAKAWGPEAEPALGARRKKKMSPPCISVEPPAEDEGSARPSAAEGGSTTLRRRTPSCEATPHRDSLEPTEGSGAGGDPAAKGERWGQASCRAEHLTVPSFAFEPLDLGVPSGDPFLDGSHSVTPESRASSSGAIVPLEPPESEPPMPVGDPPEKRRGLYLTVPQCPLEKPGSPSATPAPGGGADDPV

Turning to `CN(C)CCCCCSC1=Nc2ccccc2C(CC(=O)NCc2ccccc2)N1c1ccccc1` (stereo unspecified), the results for the inhibition in assay [1], in assay [3] and in assay [4] were 51.8%, 46.5% and 76%, respectively. Besides, the IC50 (in general, the point on the concentration scale where inhibition reaches its midpoint) in the assay on HCT-116 turned out to be 38.8 µM; in assay [2], 13.8 µM; in the assay on A549, 138 µM; in assay [5] (read-out: IC50), 3.2 µM; in assay [6], 18.5 µM.
As to `O=C(CC1c2ccccc2N=C(SCCCCCN2CCCC2)N1c1ccc(-c2ccc(F)cc2)cc1)NCc1ccccc1` (stereo unspecified), the inhibition (usually how much of the control response was suppressed) in assay [1] came out at 97.5%; in assay [3], 83.9%; in assay [4] it was 68.2%. Besides, the IC50 in the assay on HCT-116 was found to be 12.5 µM; in assay [2], 0.26 µM; in the assay with A549, 17.8 µM; in assay [5] (read-out: IC50), 5.1 µM; in assay [6], 2.18 µM.
`O=C(CC1c2ccccc2N=C(SCCCCCN2CCCC2)N1c1ccc(-c2ccccc2)cc1)NCc1ccc(F)cc1` (stereo unspecified): the figures for the inhibition in assay [1], in assay [3] and in assay [4] were 69%, 51.5% and 55.9%, respectively. Moreover, the IC50 in the assay on HCT-116 came to 6.2 µM; in assay [2], 276 µM; with A549 it was 19.8 µM; in assay [5] (read-out: IC50), 13.6 µM; in assay [6], 15 µM.
As to `O=C(CC1c2ccccc2N=C(SCCCCCN2CCCC2)N1c1ccccc1)NCc1ccc(F)cc1` (stereo unspecified), the results for the inhibition in assay [1], in assay [3] and in assay [4] were 40%, 60.1% and 22.1%, respectively. The IC50 in the assay on HCT-116 stood at 27.1 µM; in assay [2], 57.4 µM; in the assay with A549, 89.9 µM; in assay [6], 13.5 µM.
With `CN(C)CCCCCSC1=Nc2ccccc2C(CC(=O)NCc2ccccc2)N1c1ccc(-c2ccccc2)cc1` (stereo unspecified), the inhibition in assay [1] was 83.9%; in assay [3], 76.2%; in assay [4], 85.6%. For the same compound, the IC50 in the assay on HCT-116 was 9.6 µM; in assay [2], 2.4 µM; with A549, 18.1 µM; in assay [5] (read-out: IC50), 1.76 µM; in assay [6] it was 7.77 µM.
Consider `O=C(CC1c2ccccc2N=C(SCCCCCN2CCCC2)N1c1ccccc1)NCc1ccccc1` (stereo unspecified), for which the inhibition in assay [1] stood at 61.6%; in assay [3], 60.4%; in assay [4], 78.3%. In addition, the IC50 in the assay with HCT-116 worked out at 31.3 µM; in assay [2] it was 7.71 µM; in the assay with A549 it was 98.1 µM; in assay [5] (read-out: IC50), 6.19 µM; in assay [6], 77 µM.
In the case of `CN(C)CCCCCSC1=Nc2ccccc2C(CC(=O)NCc2ccc(F)cc2)N1c1ccc(-c2ccccc2)cc1` (stereo unspecified), the inhibition in assay [1] was 83.1%; in assay [3], 31%; in assay [4], 69.3%. Besides, the IC50 with HCT-116 came to 6.4 µM; in assay [2] it was 3.14 µM; in the assay on A549 it was 5 µM; in assay [5] (read-out: IC50), 6.1 µM; in assay [6] it was 27.4 µM.
Turning to `O=C(CC1c2ccccc2N=C(SCCCCCN2CCCC2)N1c1ccc(-c2ccc(F)cc2)cc1)NCc1ccc(F)cc1` (stereo unspecified), the results for the inhibition in assay [1], in assay [3] and in assay [4] were 76.6%, 83.9% and 35.1%, respectively. The IC50 with HCT-116 stood at 7.7 µM; in assay [2], 4.88 µM; in the assay on A549, 12.6 µM; in assay [5] (read-out: IC50), 19.8 µM; in assay [6] it was 12.6 µM.
In the case of `O=C(CC1c2ccccc2N=C(SCCCCCN2CCCC2)N1c1ccc(-c2ccccc2)cc1)NCc1ccccc1` (stereo unspecified), the inhibition was 73.1% in assay [1], 93.9% in assay [3] and 92.7% in assay [4]. In addition, the IC50 came out at 5.5 µM in the assay with HCT-116; 6.9 µM in assay [2]; 14.9 µM with A549; 0.81 µM in assay [5] (read-out: IC50); 0.66 µM in assay [6].
With `CN(C)CCCCCSC1=Nc2ccccc2C(CC(=O)NCc2ccccc2)N1c1ccc(-c2ccc(F)cc2)cc1` (stereo unspecified), the inhibition in assay [1] was 75.6%; in assay [3], 97.6%; in assay [4], 66.7%. Moreover, the IC50 with HCT-116 was 9.2 µM; in assay [2], 4.18 µM; in the assay with A549, 17.6 µM; in assay [5] (read-out: IC50), 9.06 µM; in assay [6], 0.25 µM.
Take `CN(C)CCCCCSC1=Nc2ccccc2C(CC(=O)NCc2ccc(F)cc2)N1c1ccc(-c2ccc(F)cc2)cc1` (stereo unspecified): the results for the inhibition in assay [1], in assay [3] and in assay [4] were 84.8%, 96.2% and 92%, respectively. Also, the IC50 stood at 9.3 µM in the assay with HCT-116; 2.76 µM in assay [2]; 11.3 µM in the assay with A549; 0.96 µM in assay [5] (read-out: IC50); 0.4 µM in assay [6].
With `CN(C)CCCCCSC1=Nc2ccccc2C(CC(=O)NCc2ccc(F)cc2)N1c1ccccc1` (stereo unspecified), the inhibition in assay [1] is 7%; in assay [3], 26.7%. For the same compound, the IC50 is 38.8 µM in the assay on HCT-116, 832 µM in assay [2], 36.8 µM in the assay with A549 and “Not Active” in assay [5]. For the same compound, in assay [4], the inhibition entry was “inactive”.
For the compound `CN(C)CCCCCN(C)C1=Nc2ccccc2C(CC(=O)NCc2ccccc2)N1c1ccc(-c2ccccc2)cc1` (stereo unspecified), the inhibition in assay [1] was determined as 89.3%. Besides, the IC50 in the assay on HCT-116 was found to be 5.6 µM.
